# Data from patent US20100234381A1, “BIOMARKERS AND METHODS FOR DETERMINING SENSITIVITY TO VASCULAR ENDOTHELIAL GROWTH FACTOR RECEPTOR-2 MODULATORS” (Bristol-Myers Squibb Company, priority 2007, published 2010).
# pIC50: −log10 of the molar value. “Also recorded” adds a separate entry of the source.
# Key:
# Format in all cases: cell-based
# FGF pathway = test: Gene set enrichment analysis of FGF pathway expression after FGF2 stimulation; details: 1 μm drug after FGF2 stimulation
# Description: The expression profiles of individual genes within each pathway were analyzed, and the log of the change in expression profile for each condition was measured. Overall, 67 pathways were analyzed. Each gene analyzed for each pathway have not been provided. But, 46 genes from the FGF pathway, 62 genes from the VEGF pathway were analyzed, and a larger generic number of genes consisting of 92 genes for the FGF pathway were analyzed using the AMBION® gene set.
# [1] = test system: MIAPAC-2 pancreatic cancer cells; test: FGF2-induced proliferation of MIAPAC-2 pancreatic cancer cells (modified MTS assay)
# Description: Cell proliferation was determined by a modified MTS assay with […] 96® Aqueous One Solution Reagent (Promega, Madison, Wis.). A2780 ovarian cancer cells, MIAPAC-2 pancreatic cancer cells, or GEO colon cancer cells were seeded on 96-well flat-bottomed tissue culture plates (Becton Dickinson, San Jose, Calif.) at a concentration of 3×10^3 cells/well in RPMI 1640 with 1% fetal bovine serum at 37° C. in 5% carbon dioxide/95% air in the presence of 100 units/ml penicillin, 100 μg/ml streptomycin and allowed to adhere to the plate overnight. Then the cells were incubated in the presence of each concentration of 0 (control), 0.3, 0.6, 1.25, 2.5, 5, 10 ng/ml of FGF2 or VEGF for another 72 hours at 37° C. in a humidified atmosphere of 5% CO2 in air. After treatment, 20 μl of […] 96® Aqueous One Solution Reagent was dropped into each well of plates. After 180 minutes incubation, the optical densities (OD) of these samples were directly measured using SPECTRAMAX® plus (Molecular Device, California) and reference wavelength of 490 nm. The OD of control samples was regarded as 100. Each condition was performed with 4 wells and experiment was repeated twice.
# GEO colon cancer cells = test: FGF2-induced proliferation of GEO colon cancer cells (modified MTS assay)
# Description: Cell Culture-GEO colon cancer cell line was routinely maintained in RPMI 1640 (Cellgro, Virginia) with 1% fetal bovine serum (Cellgro, Virginia) at 37° C. in 5% carbon dioxide/95% air in the presence of 100 units/ml penicillin, 100 μg/ml streptomycin (Cellgro, Virginia). Cell proliferation was determined by a modified MTS assay with […] 96® Aqueous One Solution Reagent (Promega, Madison, Wis.). […] After 180 minutes incubation, the optical densities (OD) of these samples were directly measured using SPECTRAMAX® plus (Molecular Device, California) and reference wavelength of 490 nm. […] Cell proliferation was determined by a modified MTS assay with […] […] After 180 minutes incubation, the optical densities (OD) of these samples were directly measured using SPECTRAMAX® plus (Molecular Device, California) and reference wavelength of 490 nm. […] […]
substance,measurement,setting,value
"[(1R),2S]-2-Aminopropionic acid 2-[4-(4-fluoro-2-methyl-1H-indol-5-yloxy)-5-methylpyrrolo[2,1-f][1,2,4]triazin-6-yloxy]-1-methylethyl ester [brivanib]",FGF2-induced FGF pathway up-regulation (expression),FGF pathway,inhibited only by brivanib; also recorded: abrograted only in the presence of only brivanib
same,effect on FGF2-induced cellular proliferation,[1]; MIAPAC-2 pancreatic cancer cells,potently inhibited; also recorded: inhibits ovarian cancer and pancreatic cancer cell line growth directly
same,inhibition of FGF2-induced cell growth,[1]; pancreatic cancer cell line MIAPAC-2,> 50%
same,pIC50,"[1]; pancreatic cancer cell line MIAPAC-2, read-out: IC50, FGF2-induced cell growth",> 6.30
same,"GEO tumor cell growth over time, stimulated with FGF2","GEO colon cancer cells; 2.5 μM brivanib, day 1 to 8 compared to day 0 control",inhibited GEO tumor cell growth stimulated with FGF2
same,inhibition of FGF2-induced cellular proliferation in GEO cells,"GEO colon cancer cells; FGF2 2.5 ng/ml, 72 hours",potently inhibited; also recorded: inhibited cancer cell growth directly; also recorded: inhibits colon cancer cell growth directly
